Results taken from patent US4198506A, “2-Carboxyalkyl-2,3-dihydro-6-mercapto-s-triazolo[4,3-b]-pyridazin-3-ones” (Bristol-Myers Company, priority 1979, dated 1980).
Values after ≈ are worked out from the molar mass of the structure shown. Values joined by “and” are separate entries in the source; they are usually repeats but may differ in a detail not shown here. Equal entries are not always repeated. Where two headings read alike, the source gives them in different places.

What was measured:
[1] = system: Miscellaneous (Salmonella, Shigella, Citrobacter); experiment: microbe, parasite or virus in culture; settings: read-out: Geometric Mean MIC
Sal. enteritidis = experiment: In vitro antibacterial activity (Steers' agar dilution MIC); format: cell-based; settings: Salmonella enterica
Enterob. cloacae = experiment: as above; format: cell-based
B. anthracis = experiment: microbe, parasite or virus in culture; format: cell-based; settings: Bacillus anthracis
Klebsiella sp. = experiment: In vitro activity (geometric mean MIC, serial dilution); format: cell-based; settings: 12 strains, Mueller-Hinton agar, inoculum 10^4 dilution, MIC cutoff 200 mcg./ml., read-out: Geometric Mean MIC
[2] = system: S. aureus (Methicillin-R); experiment: as above; format: cell-based; settings: Staphylococcus aureus; 15 strains; Mueller-Hinton agar, inoculum 10^4 dilution; MIC cutoff 200 mcg./ml.
[3] = system: E. coli (Penicillinase +); experiment: as above; format: cell-based; settings: Escherichia coli; 7 strains; Mueller-Hinton agar, inoculum 10^4 dilution; MIC cutoff 200 mcg./ml.; read-out: Geometric Mean MIC
Proteus (indole-) = experiment: as above; format: cell-based; settings: 6 strains; Mueller-Hinton agar, inoculum 10^4 dilution; MIC cutoff 200 mcg./ml.; read-out: Geometric Mean MIC
[4] = system: Proteus (indole +, cephalosporinase +); experiment: as above; format: cell-based; settings: 5 strains; Mueller-Hinton agar, inoculum 10^4 dilution; MIC cutoff 200 mcg./ml.; read-out: Geometric Mean MIC
Pr. vulgaris = experiment: In vitro antibacterial activity (Steers' agar dilution MIC); format: cell-based; settings: Proteus vulgaris
[5] = system: Enterobacter (Cephalosporinase +); experiment: In vitro activity (geometric mean MIC, serial dilution); format: cell-based; settings: 7 strains, Mueller-Hinton agar, inoculum 10^4 dilution, MIC cutoff 200 mcg./ml.
St. faecalis = experiment: In vitro antibacterial activity (Steers' agar dilution MIC); format: cell-based; settings: Enterococcus faecalis
Pr. mirabilis = experiment: as above; format: cell-based; settings: Proteus mirabilis
S. aureus (sensitive) = experiment: In vitro activity (geometric mean MIC, serial dilution); format: cell-based; settings: Staphylococcus aureus, read-out: Geometric Mean MIC
S. aureus = experiment: In vitro antibacterial activity (Steers' agar dilution MIC); format: cell-based; settings: Staphylococcus aureus
From the text: (§1) In vitro Antibacterial Activity of BB-S493 Compared with
(§2) BB-S479 and Cefamandole (Determined by Steers' Agar Dilu-
(§3) tion Method on Mueller-Hinton Agar Plate)
(§4) In vitro antibacterial activity of BB-S 525 compared with
(§5) BB-S 479 and cefamandole (determined by Steers' agar dilution
(§6) method on Mueller-Hinton agar plate)

Shig. flexneri = experiment: as above; format: cell-based
From the text: as §1, §2, §3, §4, §5, §6

Ps. aeruginosa = experiment: as above; format: cell-based
Providencia sp. = experiment: In vitro activity (geometric mean MIC, serial dilution); format: cell-based; settings: read-out: Geometric Mean MIC
Serr. marcescens = experiment: In vitro antibacterial activity (Steers' agar dilution MIC); format: cell-based; settings: Serratia marcescens
E. coli (sensitive) = experiment: In vitro activity (geometric mean MIC, serial dilution); format: cell-based; settings: Escherichia coli, read-out: Geometric Mean MIC
Pr. rettgeri = experiment: In vitro antibacterial activity (Steers' agar dilution MIC); format: cell-based; settings: Providencia rettgeri
[6] = system: S. aureus penicillinase+); experiment: In vitro activity (geometric mean MIC, serial dilution); format: cell-based; settings: Staphylococcus aureus, read-out: Geometric Mean MIC
S. pyogenes = experiment: as above; format: cell-based; settings: Streptococcus pyogenes; 10 strains; Mueller-Hinton agar, inoculum 10^4 dilution; MIC cutoff 200 mcg./ml.
S. aureus Smith = experiment: In vivo activity (Mice, sc); settings: several determinations listed
From the text: |In vivo Activity of BB-[…] and Related Compounds (Mice, sc) | (PD50 (mgm./kg.)

S. marcescens = experiment: In vitro activity (geometric mean MIC, serial dilution); format: cell-based; settings: Serratia marcescens; 16 strains; Mueller-Hinton agar, inoculum 10^4 dilution; MIC cutoff 200 mcg./ml.; read-out: Geometric Mean MIC
Pr. morganii = experiment: In vitro antibacterial activity (Steers' agar dilution MIC); format: cell-based; settings: Morganella morganii

Cn1nnnc1SCC1=C(C(=O)O)N2C(=O)[C@@H](NC(=O)[C@H](O)c3ccccc3)[C@H]2SC1 [Cefamandole, reference compound]
MIC [1]: 0.3 mg/L (≈ 0.649 µM) | MIC (Sal. enteritidis; table 2 (BB-S493), Sal. enteritidis A9531): 0.1 mg/L (≈ 0.216 µM) | MIC (Sal. enteritidis; table 4 (BB-S 525), Sal. enteritidis): 0.1 mg/L (≈ 0.216 µM) | MIC (Enterob. cloacae; table 2 (BB-S493), Enterob. cloacae A9656): 3.1 mg/L (≈ 6.7 µM) | MIC (Enterob. cloacae; table 4 (BB-S 525), Enterob. cloacae): 1.6 mg/L (≈ 3.46 µM) | MIC (B. anthracis; table 2 (BB-S493), B. anthracis A9504): 0.2 mg/L (≈ 0.432 µM) | MIC (B. anthracis; table 4 (BB-S 525), B. anthracis): 0.05 mg/L (≈ 0.108 µM) | MIC (Klebsiella sp.): 2.4 mg/L (≈ 5.19 µM) | MIC [2]: 2.4 mg/L (≈ 5.19 µM) | MIC [3]: 5.7 mg/L (≈ 12.3 µM) | MIC (Proteus (indole-)): 0.6 mg/L (≈ 1.3 µM) | MIC [4]: 3.6 mg/L (≈ 7.78 µM) | MIC (Pr. vulgaris): 50 mg/L (≈ 108 µM) | MIC (Pr. vulgaris; table 2 (BB-S493), Pr. vulgaris A9436, read-out: MIC): 0.2 mg/L (≈ 0.432 µM) | MIC (Pr. vulgaris; table 2 (BB-S493), Pr. vulgaris A9699, read-out: MIC): 25 mg/L (≈ 54.1 µM) | MIC (Pr. vulgaris; table 4 (BB-S 525), Pr. vulgaris, 1st line, read-out: MIC): 0.2 mg/L (≈ 0.432 µM) | MIC [5]: 4.7 mg/L (≈ 10.2 µM) | MIC (St. faecalis): 50 mg/L (≈ 108 µM) | MIC (St. faecalis; table 4 (BB-S 525), St. faecalis, read-out: MIC): 100 mg/L (≈ 216 µM) | MIC (Pr. mirabilis; table 2 (BB-S493), Pr. mirabilis A9554): 0.8 mg/L (≈ 1.73 µM) | MIC (Pr. mirabilis; table 2 (BB-S493), Pr. mirabilis A9900): 0.8 mg/L (≈ 1.73 µM) | MIC (Pr. mirabilis; table 4 (BB-S 525), Pr. mirabilis, 1st line): 0.4 mg/L (≈ 0.865 µM) | MIC (Pr. mirabilis; table 4 (BB-S 525), Pr. mirabilis, 2nd line, read-out: MIC): 0.2 mg/L (≈ 0.432 µM) | MIC (S. aureus (sensitive)): 0.1 mg/L (≈ 0.216 µM) | MIC (S. aureus; table 2 (BB-S493), S. aureus A9497): 0.05 mg/L (≈ 0.108 µM) | MIC (S. aureus; table 2 (BB-S493), S. aureus BX-1633 A9606): 0.2 mg/L (≈ 0.432 µM) | MIC (S. aureus; table 2 (BB-S493), S. aureus Smith A9537): 0.1 mg/L (≈ 0.216 µM) | MIC (S. aureus; table 4 (BB-S 525), S. aureus (strain not given)): 0.05 mg/L (≈ 0.108 µM) | MIC (S. aureus; table 4 (BB-S 525), S. aureus BX-1633): 0.2 mg/L (≈ 0.432 µM) | MIC (S. aureus; table 4 (BB-S 525), S. aureus Smith): 0.2 mg/L (≈ 0.432 µM) | MIC (Shig. flexneri; Shigella flexneri, table 2 (BB-S493), Shig. flexneri A9684, read-out: MIC): 3.1 mg/L (≈ 6.7 µM) | MIC (Shig. flexneri; table 4 (BB-S 525), Shig. flexneri): 3.1 mg/L (≈ 6.7 µM) | MIC (Ps. aeruginosa; Pseudomonas aeruginosa, table 2 (BB-S493), Ps. aeruginosa A9843, read-out: MIC): > 100 mg/L | MIC (Ps. aeruginosa; table 2 (BB-S493), Ps. aerugionsa A9930): > 100 mg/L | MIC (Ps. aeruginosa; table 4 (BB-S 525), Ps. aeruginosa, 1st line): > 100 mg/L | MIC (Ps. aeruginosa; table 4 (BB-S 525), Ps. aeruginosa, 2nd line): > 100 mg/L | MIC (Providencia sp.): 0.7 mg/L (≈ 1.51 µM) | MIC (Serr. marcescens; table 4 (BB-S 525), Serr. marcescens): 50 mg/L (≈ 108 µM) | MIC (Serr. marcescens; table 2 (BB-S493), Serr. marcescens A20019): 50 mg/L (≈ 108 µM) | MIC (E. coli (sensitive)): 0.3 mg/L (≈ 0.649 µM) | MIC (Pr. rettgeri; table 2 (BB-S493), Pr. rettgeri A15167): 0.1 mg/L (≈ 0.216 µM) | MIC (Pr. rettgeri; table 4 (BB-S 525), Pr. rettgeri): 0.1 mg/L (≈ 0.216 µM) | MIC [6]: 0.4 mg/L (≈ 0.865 µM) | MIC (S. pyogenes): 0.04 mg/L (≈ 0.0865 µM) | ED50 (S. aureus Smith; Staphylococcus aureus, read-out: PD50): 0.93 mg/kg | PD50 (S. aureus Smith): 0.74 mgm./kg. and 0.6 mgm./kg. and 0.8 mgm./kg. | MIC (S. marcescens): 34 mg/L (≈ 73.5 µM) | MIC (Pr. morganii; table 2 (BB-S493), Pr. morganii A9553, read-out: MIC): > 100 mg/L | MIC (Pr. morganii; table 2 (BB-S493), Pr. morganii A20031): 0.8 mg/L (≈ 1.73 µM) | MIC (Pr. morganii; table 4 (BB-S 525), Pr. morganii, 1st line): 3.1 mg/L (≈ 6.7 µM) | MIC (Pr. morganii; table 4 (BB-S 525), Pr. morganii, 2nd line): 0.8 mg/L (≈ 1.73 µM)
